Consider four compounds from patent US20130053434A1, “IRREVERSIBLE INHIBITORS USEFUL FOR THE TREATMENT OF KINASE-RELATED PATHOLOGIES” (CENTRE NATIONAL DE LA RECHERCHE SCIENTIFIQUE, priority 2009, published 2013).

For this data set the following is noted: ester bond, DIAD/PPh3, toluene, 23.0 °C.

The structures appear in SMILES notation. Where two headings read alike, the source gives them in different places.

Regarding `CCOCOc1cc2c(c(OCOCC)c1)C(=O)O[C@@H](C)C/C=C(/F)C(OC(=O)c1ccccc1)[C@H]1OC(C)(C)O[C@H]1C/C=C/2` (stereo partly shown), for the setting “from CCOCOc1cc(/C=C/C[C@@H]2OC(C)(C)O[C@@H]2C(OC(=O)c2ccccc2)/C(F)=C\C[C@@H](C)O)c(C(=O)O)c(OCOCC)c1, 10.2 mM, 1.5 h, 2 steps”, the ring closure, yield of all isomers was determined as 74%.

As to `CCOCOc1cc2c(c(OCOCC)c1)C(=O)O[C@@H](C)C/C=C(/F)C(OC(=O)c1ccccc1)[C@H]1OC(C)(C)O[C@H]1CCO2` (stereo partly shown), for the setting “from CCOCOc1cc(OCC[C@@H]2OC(C)(C)O[C@@H]2C(OC(=O)c2ccccc2)/C(F)=C\C[C@@H](C)O)c(C(=O)O)c(OCOCC)c1, 10.5 mM, 1.5 h, 2 steps”, the ring closure, yield of all isomers came to 70%.

Where the note is “from CCOCOc1cc(/C=C/CC[C@@H]2OC(C)(C)O[C@@H]2C(/C=C\C[C@@H](C)O)OC(=O)c2ccccc2)c(C(=O)O)c(OCOCC)c1, 10.5 mM, 2.0 h”, `CCOCOc1cc2c(c(OCOCC)c1)C(=O)O[C@@H](C)C/C=C\C(OC(=O)c1ccccc1)[C@H]1OC(C)(C)O[C@H]1CC/C=C/2` (stereo partly shown) registered a ring closure, yield of all isomers of 70%.

`CCOCOc1cc2c(c(OCOCC)c1)C(=O)O[C@@H](C)C/C=C\C(OC(=O)c1ccccc1)[C@H]1OC(C)(C)O[C@H]1CCO2` (stereo partly shown) gave a ring closure, yield of all isomers (from CCOCOc1cc(OCC[C@@H]2OC(C)(C)O[C@@H]2C(/C=C\C[C@@H](C)O)OC(=O)c2ccccc2)c(C(=O)O)c(OCOCC)c1, 10.7 mM, 2.0 h) of 80%.
